# Measurements reported in patent US20230348376A1 (TEIJIN PHARMA LIMITED, priority 2020, published 2023).
# Like-named read-outs stand apart in the source and are kept apart here.
# Legend:
# [1] = test system: mouse cuprizone model; test: Myelin regeneration promoting action in mouse cuprizone model (LFB staining of corpus callosum); type: in vivo; conditions: 4 weeks after 6 weeks cuprizone diet, untreated = 100%
# Description: C57BL/6J mice (8 weeks old, male) were fed a diet containing 0.3% cuprizone (bis(cyclohexanone)oxaldihydrazone) (Research Diets, Inc. #D17042709) for 6 weeks to induce demyelination. Subsequently, the mice were divided into groups of 8 mice based on the body weight, the diet was switched to a cuprizone-free diet (Research Diets, Inc. #D10001), and administration of the test compound or vehicle was started. […] After administration of 4 weeks, the mice were euthanized, perfused with a 4% paraformaldehyde solution, and then brain sampling was performed. The brain sample obtained was embedded in paraffin to prepare a coronal section specimen at Bregma+1. The specimen was stained with Luxor Fast Blue (LFB) to visualize the myelin sheath, and images were acquired using a fluorescence microscope (KEYENCE #BZ-X710). The corpus callosum area and the LFB staining positive area in the corpus callosum of the obtained pathological specimen image were measured using an image analysis application (KEYENCE #BZ-H3C/BZ-H3XD), and the ratio (LFB staining positive area in the corpus callosum/corpus callosum area) was calculated. The intact group is a non-pathogenic group, and the […] control group were sampled after feeding the diet containing 0.3% cuprizone for 6 weeks.
# In the table, the ratio of LFB staining positive area in the corpus callosum/corpus callosum area of the untreated group, fed with the cuprizone-free diet for 6 weeks, was regarded as 100%. As a result, the control group, fed with the cuprizone-containing diet for 6 weeks, decreased the ratio to 23.6%, and was confirmed to progress demyelination. The group, in which the cuprizone-containing diet was fed for 6 weeks and switched to the cuprizone-free diet, and the vehicle was administered, improved the ratio of area of LFB staining positive/area of corpus callosum to 50.1%. […] In addition, GSK239512 described in WO2013/107336 pamphlet was evaluated in the test to show the ratio of LFB staining positive area/corpus callosum area of 45.8%, in which no demyelination regeneration promoting action was shown as compared with the vehicle-administered group.
# [2] = Evaluation of brain penetration in mice (blood and brain concentration at brain Cmax); type: in vivo, mouse; conditions: C57BL/6J mice; for Concentration in blood (mean ± SD) at brain Cmax / Concentration in brain (mean ± SD) at brain Cmax / Concentration in blood at brain Cmax / Concentration in brain at brain Cmax: n=3; for Kp: male, C57BL/6J, mouse, brain/plasma, po
# Procedure, shortened: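 Male C57BL/6J mice (8 weeks, n=3) dosed orally once at 1 […] mg/kg; plasma and brain collected at 0.25, 0.5, 1, 2, 4 and 8 h. Compound extracted with acetonitrile from brain homogenate and plasma, quantified by LC/MS/MS.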
# [3] = test system: rat oligodendrocyte progenitor cells; test: Promotive activity of rat oligodendrocyte progenitor cell differentiation-2 (immunostaining of MBP); type: cell-based; conditions: vitamin D derivative 2 μM, T3 30 nM, 4 days
# Procedure, shortened: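 Rat OPCs prepared by shaking in separation medium about 22 h at 37 °C, 200 rpm, and collecting the supernatant.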
# [4] = target: T1, human VDR (Homo sapiens, UniProt P11473); test: Evaluation of VDR transcription activity in human osteoblasts (HOS cells), luciferase reporter; conditions: Activity (EC50, VDR transcription activity), HOS cells transfected with human VDR, human RXRα and DR3 luciferase reporter; 21 hours
# T1 sequence (P11473 1-427): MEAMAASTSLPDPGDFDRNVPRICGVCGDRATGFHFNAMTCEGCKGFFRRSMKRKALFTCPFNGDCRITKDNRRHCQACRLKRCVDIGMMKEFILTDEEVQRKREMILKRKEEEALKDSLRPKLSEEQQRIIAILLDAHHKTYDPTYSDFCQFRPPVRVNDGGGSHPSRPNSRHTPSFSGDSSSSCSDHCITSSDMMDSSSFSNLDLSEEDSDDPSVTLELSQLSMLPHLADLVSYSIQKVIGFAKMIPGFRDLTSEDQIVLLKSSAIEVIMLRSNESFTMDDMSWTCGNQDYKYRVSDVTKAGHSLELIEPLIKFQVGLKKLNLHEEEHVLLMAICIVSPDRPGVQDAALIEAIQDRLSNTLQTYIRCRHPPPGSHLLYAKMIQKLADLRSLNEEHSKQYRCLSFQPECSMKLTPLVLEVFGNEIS
# T1 sequence (P19793 1-462 partner): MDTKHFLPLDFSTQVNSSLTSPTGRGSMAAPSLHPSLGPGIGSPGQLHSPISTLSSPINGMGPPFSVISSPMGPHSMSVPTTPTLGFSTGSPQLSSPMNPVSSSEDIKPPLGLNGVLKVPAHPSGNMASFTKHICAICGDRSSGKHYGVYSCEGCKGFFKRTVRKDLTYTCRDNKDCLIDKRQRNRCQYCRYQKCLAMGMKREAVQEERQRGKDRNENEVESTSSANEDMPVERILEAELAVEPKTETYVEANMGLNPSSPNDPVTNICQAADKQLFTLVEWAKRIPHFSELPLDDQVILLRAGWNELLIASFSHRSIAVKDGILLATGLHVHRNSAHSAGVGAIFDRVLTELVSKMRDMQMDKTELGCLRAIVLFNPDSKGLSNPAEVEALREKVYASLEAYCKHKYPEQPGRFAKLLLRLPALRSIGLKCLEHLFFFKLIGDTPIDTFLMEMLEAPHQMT
# [5] = test system: mouse neural stem cells (NSCs); test: Promoting activity in oligodendrocyte differentiation of mouse neural stem cell (GalC immunostaining); type: cell-based; conditions: day 10, N=5
# Experimental: To NSC basal medium (100 mL) included in this product, B27 (1 mL), Penicillin-Streptomycin (1 mL), Glutamine (1 mL), bFGF (20 μL), EGF (10 μL), and Heparin (100 μL) were added to prepare the growth medium. Mouse neural stem cells were reconstituted in a T-25 flask using the growth medium and proliferated as a neurosphere by suspension culture. The cells were expanded by passaging at a split ratio=1:2 in a CO2 incubator (5% CO2, 37° C., wet) to obtain the required number of cells. ACCUTASE (Innovative Cell Technologies, Cat. No. AT104) was used as the passage reagent.
# The differentiation medium containing test substance was prepared to a target final concentration by diluting a solution of 20 mM compound in DMSO to 10-fold with DMSO and then to 2×10^5-fold with the differentiation medium. Additive-free differentiation medium for control was prepared by diluting DMSO to 2×10^5-fold with the differentiation medium to be a final concentration of 5×10^−5%.
# The mouse neural stem cells were seeded on a poly-L-Lysine/Laminin-coated 96-well plate at a cell density of 2.0×10^4 cells/100 μL/well using the differentiation medium and the culture was started in a CO2 incubator (5% CO2, 37° C., wet). The next day, the medium was replaced with the differentiation medium containing a test substance or an additive-free differentiation medium for control, and evaluation of the test substance (N=5) was started (day 0). The medium was replaced every other day by 60% of the medium in the wells. On day 10, cells were fixed and immunostained.
# After the medium was removed, the cells were fixed by adding 100 μL of 4% paraformaldehyde-PBS and being incubated at room temperature for 30 minutes. Next, the cells were washed 3 times with PBS, 100 μL of 5% Goat Serum/PBS was added thereto, and the mixture was incubated at room temperature for 30 minutes to perform blocking and membrane permeation treatment. […] After the cells were washed 3 times with PBS, 100 μL of PBS was added to the wells, and the wells were photographed with fluorescence microscopy. Images were taken under the same condition in all wells, and blue fluorescence and green fluorescence were simultaneously photographed.
# Using the hybrid cell counting software provided in the fluorescence microscope (Keyence, BZ-X700), co-localized spots of green fluorescence and blue fluorescence were extracted, and the number of these spots was defined as the total number of GalC-positive cells, and the oligodendrocyte differentiation ratio was calculated by the following calculation:the total number of GalC-positive cells/the number of nuclei (number of blue fluorescence spots). A significant difference test was performed by t-test between the additive-free group and the sample-added group.
# [6] = test system: rat oligodendrocyte progenitor cells; test: Promotive activity of rat oligodendrocyte progenitor cell differentiation-1 (MBP gene expression, mRNA); type: cell-based; conditions: 4 days; for activation at 1 µM: Rattus norvegicus, Oligodendrocyte progenitor cell, 96 h, read-out: promotive activity at T3 base (MBP gene expression; DMSO 0%, T3 100%), MBP/β actin mRNA
# Procedure, shortened: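 Primary OPCs from 1-day-old SD rat forebrain, isolated by shaking off mixed glial cultures and seeded at 2×10^3 cells/well in B27/CNTF (10 ng/mL) differentiation medium with compound. MBP mRNA measured by one-step TaqMan real-time PCR and expressed as MBP/β-actin ratio.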
# [7] = Evaluation of calcium increasing action in normal mice (serum calcium); type: in vivo, mouse; conditions: for Serum calcium concentration: repeated oral once a day, 2 weeks, C57BL/6J mice; for Calcium concentration Fluctuation range: vs vehicle 8.9 mg/dL
# Experimental: After acclimatizing C57BL/6J mice (7 weeks old, male) for 1 week, the mice were divided into groups of 5 mice based on the body weight, and administration of the compound or vehicle was started. The administration solution used was a compound (in ethanol) or ethanol diluted 100-fold with 0.1% Trion X-100 (SIGMA #X100-100ML)/saline, and the repeated oral administration at once a day was performed. After administration of 2 weeks, euthanasia was performed by collecting all blood under general anesthesia.
# [8] = 1 mg/kg, 1 mg/kg single oral dose, read-out: Concentration in brain/in blood ratio at brain Cmax
# [9] = 0.2 mg/kg, 0.2 mg/kg single oral dose, read-out: Concentration ratio in brain/in blood at brain Cmax
SMILES,Concentration in blood (mean ± SD) at brain Cmax ([2]; 1 mg/kg single oral dose),Concentration in brain (mean ± SD) at brain Cmax ([2]; 1 mg/kg single oral dose),"Kp [2, 8]",EC50 [4],activation at 1 µM [6],Serum calcium concentration ([7]; 20 μg/kg),Calcium concentration Fluctuation range ([7]; 20 μg/kg),Serum calcium concentration ([7]; 60 μg/kg),Calcium concentration Fluctuation range ([7]; 60 μg/kg),Serum calcium concentration ([7]; 200 μg/kg),Calcium concentration Fluctuation range ([7]; 200 μg/kg),Concentration in blood at brain Cmax ([2]; 0.2 mg/kg single oral dose),Concentration in brain at brain Cmax ([2]; 0.2 mg/kg single oral dose),"Kp [2, 9]",further results
"C[C@H](CN1CC[C@@H](C(C)(F)F)C1)[C@H]1CC[C@H]2/C(=C/C=C3C[C@@H](O)C[C@H](O)C3)CCC[C@]12C [Compound B034, (1R,3R)-5-(2-((1R,3aS,7aR,E)-1-((S)-1-((R)-3-(1,1-difluoroethyl)pyrrolidin-1-yl)propan-2-yl)-7a-methyloctahydro-4H-inden-4-ylidene)ethylidene)cyclohexane-1,3-diol]",251 ± 9 nM,562 ± 50 pmol/g,2.24,,,,,,,,,,,,"Ratio (%): area of LFB staining positive/area of corpus callosum, mean ([1]; 6 μg/kg oral once a day): 88.1%; Mean (number of MBP-positive cells/number of Hoechst33342-positive cells) ([3]; Test 1): 0.57"
"C[C@H](CN1CC[C@@H](CC(F)F)C1)[C@H]1CC[C@H]2/C(=C/C=C3C[C@@H](O)C[C@H](O)C3)CCC[C@]12C [Compound B043, (1R,3R)-5-(2-((1R,3aS,7aR,E)-1-((S)-1-((S)-3-(2,2-difluoroethyl)pyrrolidin-1-yl)propan-2-yl)-7a-methyloctahydro-4H-inden-4-ylidene)ethylidene)cyclohexane-1,3-diol]",74 ± 1 nM,80 ± 9 pmol/g,1.08,0.01 to 0.1 µM,,,,,,,,,,,"Ratio (%): area of LFB staining positive/area of corpus callosum, mean ([1]; 2 μg/kg oral once a day): 84.9%"
"C[C@H](CCCN1CCOCC1)[C@H]1CC[C@H]2/C(=C/C=C3C[C@@H](O)C[C@H](O)C3)CCC[C@]12C [Compound D044, (1R,3R)-5-(2-((1R,3aS,7aR,E)-7a-methyl-1-((R)-5-morpholinopentan-2-yl)octahydro-4H-inden-4-ylidene)ethylidene)cyclohexane-1,3-diol]",,,,0.001 to 0.01 µM,≥ 20%,,,,,,,,,,Gal/C positive ratio Average value ([5]; 10 nM): 9.10; Gal/C positive ratio Average value ([5]; 100 nM): 8.22; Gal/C positive ratio Average value ([5]; 1000 nM): 12.37
"C[C@H](CN1CCOC[C@@H]1C)[C@H]1CC[C@H]2/C(=C/C=C3C[C@@H](O)C[C@H](O)C3)CCC[C@]12C [Compound G004, (1R,3R)-5-(2-((1R,3aS,7aR,E)-7a-methyl-1-((S)-1-((S)-3-methylmorpholino)propan-2-yl)octahydro-4H-inden-4-ylidene)ethylidene)cyclohexane-1,3-diol]",,,,,,8.9 mg/dL,0 mg/dL,8.8 mg/dL,-0.1 mg/dL,9.0 mg/dL,0.1 mg/dL,72.2 ± 10.4 nM,171.2 ± 37.4 pmol/g,2.35,Mean (number of MBP-positive cells/number of Hoechst33342-positive cells) ([3]; Test 3): 0.27
"C[C@H](CN1CCOCC1(C)C)[C@H]1CC[C@H]2/C(=C/C=C3C[C@@H](O)C[C@H](O)C3)CCC[C@]12C [Compound G006, (1R,3R)-5-(2-((1R,3aS,7aR,E)-1-((S)-1-(3,3-dimethylmorpholino)propan-2-yl)-7a-methyloctahydro-4H-inden-4-ylidene)ethylidene)cyclohexane-1,3-diol]",,,,,,8.9 mg/dL,0 mg/dL,8.9 mg/dL,0 mg/dL,8.6 mg/dL,-0.3 mg/dL,58.9 ± 0.5 nM,137.8 ± 11.5 pmol/g,2.38,Mean (number of MBP-positive cells/number of Hoechst33342-positive cells) ([3]; Test 4): 0.50
"O=C1CCCN1c1ccc(Oc2ccc3c(c2)CCN(C2CCC2)CC3)nc1 [GSK239512, reference compound]",,,,,18%,,,,,,,,,,"Ratio (%): area of LFB staining positive/area of corpus callosum, mean ([1]; 10 mg/kg oral once a day): 45.8%; enhancement in the MBP gene expression compared with the wells added with DMSO ([6]; 1 μM): 1.8 times"
